Test results reported in patent US20240108720A1, “SOLE USE OF POLYMERSOME ASSOCIATED ADJUVANT FOR STIMULATING AN IMMUNE RESPONSE” (priority 2021, published 2024).

Legend:
[1] = system: human PBMCs; assay: Cytokine profile in human PBMCs ex vivo (ELISA); type: cell-based
Procedure: In the present ex vivo experiment, peripheral blood mononuclear cells (PBMCs) from six healthy donors were stimulated with free CpG-A, free CpG-B (7909) or ACM-CpG-B at increasing concentration (0.62, 1.25, 2.5 and 5 μM). Levels of IL-6 and IFNα secreted into culture supernatant was measured by ELISA. […] The ability to induce both cytokines was advantageous as they stimulate DCs to mature and B cells to proliferate and produce antibody, respectively.

[2] = system: C57BL/6 splenocytes; assay: Cytokine production by splenocytes in vitro (adjuvant activity); type: cell-based, mice; conditions: culture supernatant, approximately 20 h, 0.125-0.5 μM
Procedure: It is known that CpG can induce cytokine production by BALB/c splenocytes in vitro. In this experiment adjuvant effect of ACM polymersomes with CpG were studied. The experimental procedure included: • 1. Spleens harvested from three C57BL/6 mice • 2. 3 million splenocytes added to each well of 96-well plate in complete RPMI. • 3. The following treatment groups were used: untreated, free CpG, ACM-CpG and empty ACM, which were incubated approximately 20 h at 37° C. 5% C02. • 4. Collection of culture supernatants and measurement of IL-6 and IL-12p70 which are indicators of adjuvant effect. • 5. The following 96-well plate format was used for measurements (ms) carried out in triplicates (Table 1)

[3] = system: classical dendritic cells (cDCs); assay: Activation of classical dendritic cells in inguinal lymph nodes after SC injection; type: in vivo, C57BL/6 mice; conditions: 5 μg SC, inguinal lymph nodes two days after
Procedure: Class B CpG binds endosomal Toll-like receptor 9 (TLR9) to induce several immunological effects, including activation of dendritic cells (DCs), production of pro-inflammatory cytokines and B cell differentiation and antibody secretion. These attributes make class B CpG valuable as a vaccine adjuvant. In this study, C57BL/6 mice were subcutaneously (SC) injected with 5 μg free murine CpG 1826 or ACM-CpG 1826 to compare their relative abilities to activate classical dendritic cells (cDCs). Two days after, inguinal lymph nodes (which drain the site of injection) were harvested to assess DC activation. […] Moreover, ACM polymersomes alone were non-immunogenic and thus enhanced DC activation was due to efficient delivery of CpG to endosomal TLR9.

[4] = system: C57bl/6 mice; assay: Immunization with OVA conjugated or encapsulated ACMs, sera tittering by ELISA (Example 13); type: in vivo; conditions: 4 μg of OVA per injection, sera 21 days after the boost
Procedure: C57bl/6 mice were immunized with different OVA formulations: PBS (negative control), free OVA with or without Sigma Adjuvant System (SAS), OVA encapsulated ACMs or OVA conjugated ACMs. Balb/c mice were immunized with different HA formulations: PBS (negative control), free HA, HA encapsulated ACMs or HA conjugated ACMs. […] All immunizations were performed with a same final amount of antigen within each trial: 5-10 μg OVA/injection/mouse or 100-200 ng HA/injection/mouse. Final bleeds were collected 42 days after prime. ELISA was then performed to assess titers: OVA or HA were coated onto MaxiSorp plates (1 μg/ml in carbonate buffer) overnight. Plates were blocked using 3% BSA in PBS for 1 h at RT. All sera were diluted at 1:100 and incubated on plates for 1 h at RT. After 3 washes with PBS+0.05% Tween 20, secondary antibody anti-mouse IgG HRP coupled was incubated at 1:10,000 dilution for 1 h, RT (room temperature). After 3 washes with PBS/Tween 20 buffer, TMB substrate was added and reaction was stopped using 1M HCl. Optical densities were quantified at 450 nm.
C57bl/6 mice were immunized with the following formulations: a negative control (PBS), free OVA with or without Sigma Adjuvant System (SAS), BD21 encapsulated OVA and BD21 conjugated OVA. […] 21 days after the boost, sera were collected for tittering by ELISA.

[5] = PBMCs from six healthy donors, 0.62, 1.25, 2.5 and 5 μM

CpG 7909 [CpG-B]
CpG concentration at which IL-6 levels saturate ([1]; PBMCs from six healthy donors): around 1.25 μM
IFNα production [1, 5]: little to none was detected
IL-6 secreted into culture supernatant [1, 5]: low to moderate quantities

CpG ODN1826 [free CpG]
IL-6 production [2]: only detected in free CpG- or ACM-CpG-treated splenocytes
IL-12 (IL-12p70) production [2]: not detected even in neat culture supernatant
CD86 and CD80 activation marker expression on cDC2 [3]: significant increase in CD86 and CD80 expression on cDC2

B1: Ovalbumin (OVA) (protein, listed as Gallus gallus)
chain: MGSIGAASMEFCFDVFKELKVHHANENIFYCPIAIMSALAMVYLGAKDSTRTQINKVVRFDKLPGFGDSIEAQCGTSVNVHSSLRDILNQITKPNDVYSFSLASRLYAEERYPILPEYLQCVKELYRGGLEPINFQTAADQARELINSWVESQTNGIIRNVLQPSSVDSQTAMVLVNAIVFKGLWEKAFKDEDTQAMPFRVTEQESKPVQMMYQIGLFRVASMASEKMKILELPFASGTMSMLVLLPDEVSGLEQLESIINFEKLTEWTSSNVMEERKIKVYLPRMKMEEKYNLTSVLMAMGITDVFSSSANLSGISSAESLKISQAVHAAHAEINEAGREVVGSAEAGVDAASVSEEFRADHPFLFCIKHIATNAVLFFGRCVSP
IgG response / titer against OVA (ELISA) [4]: not able to elicit an IgG response
